From patent publication US20230139171A1 (SITA Information Networking Computing UK Limited, priority 2019, published 2023)

Assays:
Format in all cases: cell-based
[1] = target: T1, human TLR7 (Homo sapiens, UniProt Q9NYK1); test: TLR7 inhibition reporter assay (HEK-Blue cells, SEAP reporter, gardiquimod stimulation); conditions: HEK-Blue cells overexpressing human TLR7, SEAP reporter, gardiquimod 7.5 μM; read-out: TLR7 IC50
T1 construct: host or cells: HEK-Blue cells
T1 sequence (Q9NYK1 27-1049): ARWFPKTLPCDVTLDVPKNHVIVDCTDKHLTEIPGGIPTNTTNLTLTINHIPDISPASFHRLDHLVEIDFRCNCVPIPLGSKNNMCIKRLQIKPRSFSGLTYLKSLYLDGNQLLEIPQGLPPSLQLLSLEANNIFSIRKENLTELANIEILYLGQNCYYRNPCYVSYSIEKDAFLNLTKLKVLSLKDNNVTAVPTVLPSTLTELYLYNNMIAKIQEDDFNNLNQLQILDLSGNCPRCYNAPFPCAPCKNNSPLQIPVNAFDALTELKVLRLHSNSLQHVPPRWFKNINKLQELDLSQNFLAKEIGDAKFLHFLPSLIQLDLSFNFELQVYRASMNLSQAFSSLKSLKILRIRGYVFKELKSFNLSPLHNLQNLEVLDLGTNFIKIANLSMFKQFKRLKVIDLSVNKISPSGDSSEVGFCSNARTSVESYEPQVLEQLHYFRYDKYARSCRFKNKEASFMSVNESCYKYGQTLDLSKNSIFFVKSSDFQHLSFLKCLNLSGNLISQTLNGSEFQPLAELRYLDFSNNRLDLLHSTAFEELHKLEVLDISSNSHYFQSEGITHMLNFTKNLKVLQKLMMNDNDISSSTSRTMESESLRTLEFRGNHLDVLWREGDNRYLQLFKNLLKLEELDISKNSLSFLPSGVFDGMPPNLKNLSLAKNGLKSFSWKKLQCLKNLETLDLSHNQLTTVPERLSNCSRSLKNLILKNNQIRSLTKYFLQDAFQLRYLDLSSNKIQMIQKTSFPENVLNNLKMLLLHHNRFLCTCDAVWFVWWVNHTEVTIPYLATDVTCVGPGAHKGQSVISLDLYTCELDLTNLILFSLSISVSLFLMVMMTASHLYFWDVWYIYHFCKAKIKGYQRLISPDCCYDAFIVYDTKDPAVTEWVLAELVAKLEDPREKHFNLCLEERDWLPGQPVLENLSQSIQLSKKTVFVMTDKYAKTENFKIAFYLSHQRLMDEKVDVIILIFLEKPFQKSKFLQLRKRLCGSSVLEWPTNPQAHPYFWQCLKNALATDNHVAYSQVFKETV
In short: (§1)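 HEK-Blue cells overexpressing human TLR7, TLR8 or TLR9 carry a SEAP reporter driven by NF-κB/AP-1 sites. Compounds (0.05 nM–50 μM) were preincubated 30 min at room temperature, then cells were stimulated with gardiquimod 7.5 μM (TLR7), R848 15.9 μM (TLR8) or ODN2006 5 nM (TLR9) for 22 h at 37 °C.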

[2] = target: T2, human TLR9 (Homo sapiens, UniProt Q9NR96); test: TLR9 inhibition reporter assay (HEK-Blue cells, SEAP reporter, ODN2006 stimulation); conditions: HEK-Blue cells overexpressing human TLR9, SEAP reporter, ODN2006 5 nM
T2 construct: host or cells: HEK-Blue cells
T2 sequence (Q9NR96 26-1032): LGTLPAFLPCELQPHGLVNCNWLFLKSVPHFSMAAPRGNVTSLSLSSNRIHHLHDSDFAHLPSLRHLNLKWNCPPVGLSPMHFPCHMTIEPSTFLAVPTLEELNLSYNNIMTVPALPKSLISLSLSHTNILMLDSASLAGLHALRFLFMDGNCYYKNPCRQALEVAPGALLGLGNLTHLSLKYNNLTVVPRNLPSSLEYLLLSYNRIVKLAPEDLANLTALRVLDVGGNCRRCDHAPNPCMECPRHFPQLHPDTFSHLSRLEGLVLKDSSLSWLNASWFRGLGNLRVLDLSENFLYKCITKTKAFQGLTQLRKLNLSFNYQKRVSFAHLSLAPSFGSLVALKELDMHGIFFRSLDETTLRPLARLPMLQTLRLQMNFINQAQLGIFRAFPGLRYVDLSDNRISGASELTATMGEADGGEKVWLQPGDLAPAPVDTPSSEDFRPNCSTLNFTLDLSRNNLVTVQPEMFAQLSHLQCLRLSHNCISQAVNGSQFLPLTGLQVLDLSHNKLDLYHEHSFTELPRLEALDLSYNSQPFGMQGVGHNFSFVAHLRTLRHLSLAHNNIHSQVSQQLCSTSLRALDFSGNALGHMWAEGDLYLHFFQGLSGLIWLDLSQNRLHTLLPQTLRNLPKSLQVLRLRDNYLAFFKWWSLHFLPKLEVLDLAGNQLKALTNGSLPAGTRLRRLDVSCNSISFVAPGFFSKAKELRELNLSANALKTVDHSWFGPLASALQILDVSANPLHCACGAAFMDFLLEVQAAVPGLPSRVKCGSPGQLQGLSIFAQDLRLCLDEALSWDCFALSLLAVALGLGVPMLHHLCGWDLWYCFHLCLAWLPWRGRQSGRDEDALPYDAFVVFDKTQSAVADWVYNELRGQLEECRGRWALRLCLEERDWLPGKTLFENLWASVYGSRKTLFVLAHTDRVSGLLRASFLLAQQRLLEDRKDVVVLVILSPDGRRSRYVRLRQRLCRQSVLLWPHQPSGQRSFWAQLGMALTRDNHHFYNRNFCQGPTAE
In short: as §1

[3] = target: T3, human TLR8 (Homo sapiens, UniProt Q9NR97); test: TLR8 inhibition reporter assay (HEK-Blue cells, SEAP reporter, R848 stimulation); conditions: HEK-Blue cells overexpressing human TLR8, SEAP reporter, R848 15.9 μM; read-out: TLR8 IC50
T3 construct: host or cells: HEK-Blue cells
T3 sequence (Q9NR97 27-1041): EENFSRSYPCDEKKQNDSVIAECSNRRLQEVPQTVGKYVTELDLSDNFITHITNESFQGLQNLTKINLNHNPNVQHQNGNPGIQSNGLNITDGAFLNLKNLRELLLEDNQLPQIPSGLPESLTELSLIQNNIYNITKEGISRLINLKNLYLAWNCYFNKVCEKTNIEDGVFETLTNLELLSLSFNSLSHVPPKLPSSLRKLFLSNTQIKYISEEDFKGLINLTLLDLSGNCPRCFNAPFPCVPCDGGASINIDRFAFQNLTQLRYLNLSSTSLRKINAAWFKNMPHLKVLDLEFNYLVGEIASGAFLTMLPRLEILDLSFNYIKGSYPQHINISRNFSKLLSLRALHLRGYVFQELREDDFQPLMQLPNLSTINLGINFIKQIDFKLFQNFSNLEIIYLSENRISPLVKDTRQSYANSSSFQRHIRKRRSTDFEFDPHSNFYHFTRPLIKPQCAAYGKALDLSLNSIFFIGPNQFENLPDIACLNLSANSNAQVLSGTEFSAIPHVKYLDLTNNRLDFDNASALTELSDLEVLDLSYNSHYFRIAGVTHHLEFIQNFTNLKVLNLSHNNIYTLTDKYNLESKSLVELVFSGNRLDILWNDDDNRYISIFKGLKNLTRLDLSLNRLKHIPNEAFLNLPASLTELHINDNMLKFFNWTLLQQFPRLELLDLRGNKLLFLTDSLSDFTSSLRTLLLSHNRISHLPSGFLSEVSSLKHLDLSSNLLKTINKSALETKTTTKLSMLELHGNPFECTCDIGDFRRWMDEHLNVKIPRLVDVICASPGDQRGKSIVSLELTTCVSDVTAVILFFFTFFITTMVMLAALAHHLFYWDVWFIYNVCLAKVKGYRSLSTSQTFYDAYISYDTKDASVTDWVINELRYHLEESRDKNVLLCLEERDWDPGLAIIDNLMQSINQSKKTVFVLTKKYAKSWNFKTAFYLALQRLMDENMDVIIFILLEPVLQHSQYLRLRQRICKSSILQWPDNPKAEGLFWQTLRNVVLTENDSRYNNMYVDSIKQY
In short: as §1

| Compound | IC50 [1] | IC50 [2] | IC50 [3] |
| --- | --- | --- | --- |
| Cc1c(-c2[nH]c3sc(C4CCC(N5CC(F)(F)C5)CC4)nc3c2C(C)C)cn2ncnc2c1C (single isomer, unassigned) [Example 218, 2-(4-(3,3-difluoroazetidin-1-yl)cyclohexyl)-5-(7,8-dimethyl-[1,2,4]triazolo[1,5-a]pyridin-6-yl)-6-isopropyl-4H-pyrrolo[3,2-d]thiazole] | 1.44 nM | 35900 nM | 18.6 nM |
| Cc1c(-c2[nH]c3sc(C4CCC(N5CC(F)(F)C5)CC4)nc3c2C(C)C)cn2ncnc2c1C (single isomer, unassigned) [Example 219, 2-(4-(3,3-difluoroazetidin-1-yl)cyclohexyl)-5-(7,8-dimethyl-[1,2,4]triazolo[1,5-a]pyridin-6-yl)-6-isopropyl-4H-pyrrolo[3,2-d]thiazole] | 637 nM | 46200 nM | 713 nM |
| Cc1c(-c2[nH]c3sc(C4CCC(N5CCNC(=O)C5)CC4)nc3c2C(C)C)cn2ncnc2c1C (single isomer, unassigned) [Example 220, 4-(4-(5-(7,8-dimethyl-[1,2,4]triazolo[1,5-a]pyridin-6-yl)-6-isopropyl-4H-pyrrolo[3,2-d]thiazol-2-yl)cyclohexyl) piperazin-2-one] | 1.4 nM | > 50000 nM | 4.38 nM |
| Cc1c(-c2[nH]c3sc(C4CCC(N5CCNC(=O)C5)CC4)nc3c2C(C)C)cn2ncnc2c1C (single isomer, unassigned) [Example 221, 4-(4-(5-(7,8-dimethyl-[1,2,4]triazolo[1,5-a]pyridin-6-yl)-6-isopropyl-4H-pyrrolo[3,2-d]thiazol-2-yl)cyclohexyl) piperazin-2-one] | 3.08 nM | > 50000 nM | 33.3 nM |
| Cc1c(-c2[nH]c3sc(C4CCC(N(C)C(C)C)CC4)nc3c2C(C)C)cn2ncnc2c1C (single isomer, unassigned) [Example 222, 4-(5-(7,8-dimethyl-[1,2,4]triazolo[1,5-a]pyridin-6-yl)-6-isopropyl-4H-pyrrolo[3,2-d]thiazol-2-yl)-N-isopropyl-N-methylcyclohexan-1-amine] | 0.75 nM | 30400 nM | 1.94 nM |
| Cc1c(-c2[nH]c3sc(C4CCC(N(C)C(C)C)CC4)nc3c2C(C)C)cn2ncnc2c1C (single isomer, unassigned) [Example 223, 4-(5-(7,8-dimethyl-[1,2,4]triazolo[1,5-a]pyridin-6-yl)-6-isopropyl-4H-pyrrolo[3,2-d]thiazol-2-yl)-N-isopropyl-N-methylcyclohexan-1-amine] | 8.65 nM | 14300 nM | 10.3 nM |
| Cc1c(-c2[nH]c3sc(C4CCC(N5CC(O)C5)CC4)nc3c2C(C)C)cn2ncnc2c1C (single isomer, unassigned) [Example 224, 1-(4-(5-(7,8-dimethyl-[1,2,4]triazolo[1,5-a]pyridin-6-yl)-6-isopropyl-4H-pyrrolo[3,2-d]thiazol-2-yl)cyclohexyl)azetidin-3-ol] | 0.56 nM | 9030 nM | 0.63 nM |
| Cc1c(-c2[nH]c3sc(C4CCC(N5CC(O)C5)CC4)nc3c2C(C)C)cn2ncnc2c1C (single isomer, unassigned) [Example 225, 1-(4-(5-(7,8-dimethyl-[1,2,4]triazolo[1,5-a]pyridin-6-yl)-6-isopropyl-4H-pyrrolo[3,2-d]thiazol-2-yl)cyclohexyl)azetidin-3-ol] | 2.56 nM | 5490 nM | 3.94 nM |
| Cc1c(-c2[nH]c3sc(C4CCC(N5CC(F)C5)CC4)nc3c2C(C)C)cn2ncnc2c1C (single isomer, unassigned) [Example 226, 5-(7,8-dimethyl-[1,2,4]triazolo[1,5-a]pyridin-6-yl)-2-(4-(3-fluoroazetidin-1-yl)cyclohexyl)-6-isopropyl-4H-pyrrolo[3,2-d]thiazole] | 0.35 nM | 6780 nM | 0.41 nM |
| Cc1c(-c2[nH]c3sc(C4CCC(N5CC(F)C5)CC4)nc3c2C(C)C)cn2ncnc2c1C (single isomer, unassigned) [Example 227, 5-(7,8-dimethyl-[1,2,4]triazolo[1,5-a]pyridin-6-yl)-2-(4-(3-fluoroazetidin-1-yl)cyclohexyl)-6-isopropyl-4H-pyrrolo[3,2-d]thiazole] | 4.43 nM | 18200 nM | 11.4 nM |
| Cc1c(-c2[nH]c3sc(C4CCC(N(C)CC(C)C)CC4)nc3c2C(C)C)cn2ncnc2c1C (single isomer, unassigned) [Example 228, 4-(5-(7,8-dimethyl-[1,2,4]triazolo[1,5-a]pyridin-6-yl)-6-isopropyl-4H-pyrrolo[3,2-d]thiazol-2-yl)-N-isobutyl-N-methylcyclohexan-1-amine] | 2.18 nM | 8860 nM | 1.46 nM |
